Several values for one entry are separate records, joined by “and”; a condition that tells them apart may be missing. Equal entries are not always repeated. Inconclusive results and toxic doses are left out.

In the test the test system is P388 leukemia ip, CD2F1 mice, survival T/C. Put plainly: NCI In Vivo Anticancer Drug Screen. Data for tumor model P388 Leukemia (intraperitoneal) in CD2F1 (CDF1) mice. Conditions: endpoint: median survival time, higher = longer survival. Summed up: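 Mice carrying the transplanted tumor received test compound or vehicle. Survival was recorded in each group, and the value is the treated-group measurement divided by that of the vehicle-treated control group.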

[1] abbreviates: dose: 60.0 mg/kg/injection, schedule: Q01DX005 (ip), vehicle: saline with Tween-80.
The mark [2] stands for this setting: dose: 120.0 mg/kg/injection, schedule: Q01DX005 (ip), vehicle: saline with Tween-80.
[3] abbreviates: dose: 240.0 mg/kg/injection, schedule: Q01DX005 (ip), vehicle: saline with Tween-80.
Setting [4] is: dose: 50.0 mg/kg/injection, schedule: Q01DX005 (ip), vehicle: saline with Tween-80.
Where [5] appears, read: dose: 100.0 mg/kg/injection, schedule: Q01DX005 (ip), vehicle: saline with Tween-80.
Where [6] appears, read: dose: 200.0 mg/kg/injection, schedule: Q01DX005 (ip), vehicle: saline with Tween-80.
[7] abbreviates: dose: 50.0 mg/kg/injection, schedule: Q01DX009 (ip), vehicle: saline.
Where [8] appears, read: dose: 100.0 mg/kg/injection, schedule: Q01DX009 (ip), vehicle: saline.
Setting [9] is: dose: 200.0 mg/kg/injection, schedule: Q01DX009 (ip), vehicle: saline.
Setting [10] is: dose: 100.0 mg/kg/injection, schedule: Q04DX003 (ip), vehicle: Klucel (hydroxypropylcellulose) (HPC).
Setting [11] is: dose: 200.0 mg/kg/injection, schedule: Q04DX003 (ip), vehicle: Klucel (hydroxypropylcellulose) (HPC).
[12] abbreviates: dose: 400.0 mg/kg/injection, schedule: Q04DX003 (ip), vehicle: Klucel (hydroxypropylcellulose) (HPC).
[13] abbreviates: dose: 25.0 mg/kg/injection, schedule: Q01DX009 (ip), vehicle: Klucel (hydroxypropylcellulose) (HPC).
Setting [14] is: dose: 50.0 mg/kg/injection, schedule: Q01DX009 (ip), vehicle: Klucel (hydroxypropylcellulose) (HPC).
Where [15] appears, read: dose: 100.0 mg/kg/injection, schedule: Q01DX009 (ip), vehicle: Klucel (hydroxypropylcellulose) (HPC).
The mark [16] stands for this setting: dose: 200.0 mg/kg/injection, schedule: Q01DX009 (ip), vehicle: Klucel (hydroxypropylcellulose) (HPC).

For the compound `Cc1cc(NN=O)nc(C)c1C#N`, the T/C runs as follows: (dose: 3.12 mg/kg/injection, schedule: Q01DX009 (ip), vehicle: water) 109 % of control; (dose: 6.25 mg/kg/injection, schedule: Q01DX009 (ip), vehicle: water) 123 % of control; (dose: 12.5 mg/kg/injection, schedule: Q01DX009 (ip), vehicle: water) 116 % of control; (dose: 25.0 mg/kg/injection, schedule: Q01DX009 (ip), vehicle: water) 150 % of control and 151 % of control; (dose: 50.0 mg/kg/injection, schedule: Q01DX009 (ip), vehicle: water) 178 % of control and 190 % of control; (dose: 100.0 mg/kg/injection, schedule: Q01DX009 (ip), vehicle: water) 178 % of control.
`COC(=O)c1noc2c1CSC1=C2CS(=O)(=O)c2ccccc21`: the T/C under setting [1] is 104 % of control, the T/C under setting [2] was 104 % of control and the T/C under setting [3] is 98 % of control.
As to `CCC(=N\NC(=S)NCCN(CC)CC)/C(C)=N/NC(=S)NCCN(CC)CC`, the T/C is, setting by setting: (dose: 1.56 mg/kg/injection, schedule: Q01DX009 (ip), vehicle: saline) 94 % of control; (dose: 3.13 mg/kg/injection, schedule: Q01DX009 (ip), vehicle: saline) 118 % of control; (dose: 6.25 mg/kg/injection, schedule: Q01DX009 (ip), vehicle: saline) 106 % of control; (dose: 12.5 mg/kg/injection, schedule: Q01DX009 (ip), vehicle: saline) 101 % of control.
For `Nc1nnc2nc(C(C(=O)/C=C\c3cccc(O)c3)c3nc4nnc(N)n4[nH]c3=O)c(=O)[nH]n12`, the T/C was 95 % of control under setting [4], 94 % of control under setting [5] and 100 % of control under setting [6].
Take `CN1CCCC1c1ccc[n+](C)c1` (centres undefined): the T/C was 110 % of control and 108 % of control under setting [7]; 110 % of control and 105 % of control under setting [8]; 115 % of control and 113 % of control under setting [9].
In the case of `N#Cc1ccccc1N=Nc1nc(N)c(C(N)=O)[nH]1`, the T/C was 100 % of control under setting [10], 103 % of control under setting [11] and 100 % of control under setting [12].
Consider `N#CC1Sc2ccccc2N1C(=O)Oc1ccccc1` (centres undefined), for which the T/C under setting [1] was 102 % of control, the T/C under setting [2] is 106 % of control and the T/C under setting [3] was 106 % of control.
As for `Nc1nc2n(O)cc(-c3ccccc3)nc-2c(=O)n1`, the T/C is 89 % of control (dose: 10.0 mg/kg/injection, schedule: Q01DX009 (ip), vehicle: saline with Tween-80); 101 % of control (dose: 20.0 mg/kg/injection, schedule: Q01DX009 (ip), vehicle: saline with Tween-80); 92 % of control (dose: 40.0 mg/kg/injection, schedule: Q01DX009 (ip), vehicle: saline with Tween-80).
Turning to `c1ccc(-c2csc(-c3nc(-c4ccccc4)cs3)n2)cc1`, the T/C is 117 % of control under setting [13]; 113 % of control under setting [14]; 99 % of control under setting [1]; 118 % of control under setting [15]; 96 % of control under setting [2]; 110 % of control under setting [16]. Further, the T/C under setting [3] is 96 % of control.
Consider `CCOC(=O)C(C)(C(=O)c1ccccc1)C(=O)C(C)(C)C` (centres undefined), for which the T/C runs as follows: (dose: 75.0 mg/kg/injection, schedule: Q01DX009 (ip), vehicle: saline with Tween-80) 107 % of control; (dose: 150.0 mg/kg/injection, schedule: Q01DX009 (ip), vehicle: saline with Tween-80) 103 % of control; (dose: 300.0 mg/kg/injection, schedule: Q01DX009 (ip), vehicle: saline with Tween-80) 115 % of control.
With `C=CCn1c2c(c3ccccc3c1=O)C(=O)c1ccccc1-2`, the T/C was 97 % of control (dose: 6.25 mg/kg/injection, schedule: Q01DX005 (ip), vehicle: saline with Tween-80); 99 % of control (dose: 12.5 mg/kg/injection, schedule: Q01DX005 (ip), vehicle: saline with Tween-80); 99 % of control (dose: 25.0 mg/kg/injection, schedule: Q01DX005 (ip), vehicle: saline with Tween-80); 87 % of control under setting [5].
As to `Clc1ccc(C2SC=Cc3ccccc32)cc1` (centres undefined), the T/C is 105 % of control and 113 % of control (dose: 12.5 mg/kg/injection, schedule: Q01DX009 (ip), vehicle: Klucel (hydroxypropylcellulose) (HPC)); 105 % of control and 115 % of control under setting [13]; 104 % of control and 112 % of control under setting [14]; 116 % of control and 122 % of control under setting [15]; 122 % of control and 95 % of control under setting [16].
As for `COc1ccc(CCN/C=C2\Cc3c(Cl)cccc3C2=O)cc1OC`, the T/C runs as follows: under setting [10], 100 % of control; under setting [11], 93 % of control; under setting [12], 99 % of control.
`O=C1NC(=O)C(C2CC2)(C2CC2)N1`: the T/C is, setting by setting: under setting [4], 103 % of control; under setting [5], 101 % of control; under setting [6], 101 % of control.
Take `C/C(=C\CCCC(/C=C/C=C/CCCCOCc1ccccc1)O[Si](C)(C)C(C)(C)C)CO` (centres undefined): the T/C reads like this: under setting [4], 102 % of control; under setting [5], 101 % of control; under setting [6], 99 % of control.
On to `CCn1cnc2sc3c(c2c1=O)CCCC3`, for which the T/C was 97 % of control under setting [1] and 98 % of control under setting [2].
Turning to `COC(=O)C(=O)c1c(C(=O)OC)nc2[nH]n(-c3ccccc3)c(=O)c2c1-c1cccc2ccccc12`, the T/C was 100 % of control and 110 % of control (dose: 30.0 mg/kg/injection, schedule: Q01DX005 (ip), vehicle: saline with Tween-80); 98 % of control and 100 % of control under setting [1]; 91 % of control and 94 % of control under setting [2].
In the case of `O=C(NC(=O)c1cccc2ccccc12)NC(=S)c1ccccc1`, the T/C is 92 % of control (dose: 100.0 mg/kg/injection, schedule: Q01DX001 (ip), vehicle: saline); 88 % of control (dose: 200.0 mg/kg/injection, schedule: Q01DX001 (ip), vehicle: saline); 86 % of control (dose: 400.0 mg/kg/injection, schedule: Q01DX001 (ip), vehicle: saline).
For `COC1C(C)OC(O[C@@H]2C[C@@](C)(O)Cc3cc4c(c(O)c32)C(=O)c2c(O)cc3c(c2C4=O)O[C@@H]2O[C@@]3(C)[C@@H](O)[C@H](N(C)C)[C@H]2O)C(OC)C1(C)OC` (some centres undefined), the T/C (dose: 3.12 mg/kg/injection, schedule: Q01DX009 (ip), vehicle: other) is 119 % of control.
For `Nc1c(S)cc(O)c2c1C(=O)c1ccccc1C2=O`, the T/C by setting is: (dose: 50.0 mg/kg/injection, schedule: Q01DX005 (ip), vehicle: Klucel (hydroxypropylcellulose) (HPC)) 99 % of control; (dose: 100.0 mg/kg/injection, schedule: Q01DX005 (ip), vehicle: Klucel (hydroxypropylcellulose) (HPC)) 103 % of control; (dose: 200.0 mg/kg/injection, schedule: Q01DX005 (ip), vehicle: Klucel (hydroxypropylcellulose) (HPC)) 107 % of control.
In the case of `CCn1c2nc(=O)n(C)c(=O)c-2[n+]([O-])c2cc(Br)ccc21`, the T/C is 100 % of control (dose: 6.25 mg/kg/injection, schedule: Q04DX002 (ip), vehicle: saline with Tween-80); 96 % of control (dose: 12.5 mg/kg/injection, schedule: Q04DX002 (ip), vehicle: saline with Tween-80); 89 % of control and 92 % of control (dose: 25.0 mg/kg/injection, schedule: Q04DX002 (ip), vehicle: saline with Tween-80).
In the case of `CCN(CC)CCOC(=O)/C=C\c1cccc2c(=O)cc(-c3ccccc3)oc12`, the T/C under setting [7] was 100 % of control, the T/C under setting [8] is 101 % of control and the T/C under setting [9] is 117 % of control.
With `CCC12C=CCN3CCC4(c5cc(C6(C(=O)OC)CCCCCc7c6[nH]c6ccccc76)c(OC)cc5N(C)C4C(O)(C(=O)OC)C1OC(C)=O)C32` (centres undefined), the T/C is 106 % of control (dose: 12.5 mg/kg/injection, schedule: Q01DX001 (ip), vehicle: distilled water + Tween-80); 109 % of control (dose: 25.0 mg/kg/injection, schedule: Q01DX001 (ip), vehicle: distilled water + Tween-80); 106 % of control (dose: 50.0 mg/kg/injection, schedule: Q01DX001 (ip), vehicle: distilled water + Tween-80); 95 % of control (dose: 100.0 mg/kg/injection, schedule: Q01DX001 (ip), vehicle: distilled water + Tween-80); 95 % of control (dose: 200.0 mg/kg/injection, schedule: Q01DX001 (ip), vehicle: distilled water + Tween-80).

Values taken from PubChem BioAssay AID330 (DTP/NCI, 2004).
